{"source": "patent US11674182B2", "about": "“Biomarker for HER2-positive cancer and anti-HER2 therapy and applications thereof” (INDUSTRY-UNIVERSITY COOPERATION FOUNDATION HANYANG …, priority 2017, dated 2023)", "key": {"ADAM10 and ADAM17": {"test_system": "ADAM10 and ADAM17", "conditions": "HER2+ metastatic breast cancer patients expressing p95-HER2; trial reported to have failed; cited from earlier work"}, "BT474 cells": {"test_system": "BT474 cells", "test": "Cell viability test (SRB) and colony formation assay in BT474 cells", "assay_type": "cell-based, human", "conditions": "MEL-18-depleted BT474 cells; 1 μM GW280264 with trastuzumab, 5 days", "procedure": "An in vitro toxicity test analysis kit (Sulforhodamine B based, TOX6) was purchased from Sigma-Aldrich (St. Louis, Mo., USA), and used according to the manufacturer's protocols. […] After five days, the cells were fixed by layering a TCA solution in the medium, and incubated at 4° C. for 1 hour. The fixed cells were washed with water several times, and stained with a 0.4% sulforhodamine B solution for 30 minutes. Subsequently, the stained cells were washed with a 1% acetic acid solution until remaining salts were no longer observed, and the incorporated dye was dissolved in a 10 mM Tris solution while gently stirring. The prepared plate was detected using a microplate reader at 490 nm.\nAfter 2 weeks, the cells were fixed with a 4% formaldehyde solution for 5 minutes, washed with PBS, and stained with 0.02% crystal violet (C0775, Sigma-Aldrich) for 1 to 2 hours at room temperature and then washed again. The prepared plates were dried thoroughly, and the experiment was carried out."}, "ErbB-PI3K-AKT signaling": {"test_system": "ErbB-PI3K-AKT signaling", "test": "Immunoblotting / ELISA of ErbB signaling and ErbB ligand secretion in BT474 cells", "assay_type": "cell-based, human", "conditions": "MEL-18-knockdown BT474 cells; 1 μM GW280264, 24 hours", "procedure": "Cells were lysed in RIPA buffer, and the lysates were subjected to immunoblotting and immunoprecipitation as described in [M. H. Cho et al, Nat Commun 6, 7821(2015)] (60). For immunoblotting, the cell lysates were separated by 6% to 15% SDS-polyacrylamide gel electrophoresis (PAGE) and transferred to nitrocellulose membranes. After blocking the membranes with 5% skin milk, the membranes were incubated with primary antibodies overnight at 4° C., and then reacted with horseradish peroxidase (HRP)-conjugated secondary antibodies for 1 hour at room temperature. Bands were visualized using an ECL detection system (GE Healthcare, Chalfont St. Giles, UK).\nThe levels of the HER ligands HB-EGF and heregulinl (heregulinl, NRG1-beta1, NRG1) were measured in cell culture supernatants using ELISA (BosterBio and R&D Systems) according to the manufacturer's protocols.\nIn the case of the R&D Systems kit, an ELISA plate was coated overnight with captured antibodies and blocked with 3% BSA for 1 hour. […]\nIn the case of the BosterBio ELISA kit, the antibody-coated plate was directly filled with samples and standards, and incubated for 90 minutes. […] After this step, the plates for both kits were filled with a substrate solution for 20 minutes, the reaction was stopped using a stop solution for 20 minutes, and the absorbance was measured using a microplate reader at a wavelength of 450 nm. […]"}, "ADAM10": {"biological_target": "T1, ADAM10 (Homo sapiens, UniProt O14672)", "T1 sequence (O14672 214-748)": "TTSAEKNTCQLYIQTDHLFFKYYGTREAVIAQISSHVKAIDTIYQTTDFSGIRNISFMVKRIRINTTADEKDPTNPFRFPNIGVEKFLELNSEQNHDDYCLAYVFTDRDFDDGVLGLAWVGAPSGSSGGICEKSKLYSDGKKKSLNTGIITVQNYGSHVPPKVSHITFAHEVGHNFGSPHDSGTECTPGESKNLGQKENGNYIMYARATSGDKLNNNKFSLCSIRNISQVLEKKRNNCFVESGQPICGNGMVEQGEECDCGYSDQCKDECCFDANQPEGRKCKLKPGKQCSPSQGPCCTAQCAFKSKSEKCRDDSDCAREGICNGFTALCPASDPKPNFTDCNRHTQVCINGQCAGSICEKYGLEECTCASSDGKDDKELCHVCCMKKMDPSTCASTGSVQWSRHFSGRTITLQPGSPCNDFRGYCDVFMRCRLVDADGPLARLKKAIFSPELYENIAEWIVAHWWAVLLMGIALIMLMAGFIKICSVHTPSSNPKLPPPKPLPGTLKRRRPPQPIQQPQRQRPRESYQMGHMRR", "conditions": "cited from earlier work"}}}
{"smiles": "COC(=O)N1CC2(CC2)C[C@H](C(=O)NO)[C@H]1C(=O)N1CCN(c2ccccc2)CC1", "note": "[INCB7839, (6S,7S)-7-[(hydroxyamino)carbonyl]-6-[(4-phenyl-1-piperazinyl)carbonyl]-5-azaspiro[2.5]octane-5-carboxylic acid methyl ester]", "values": [{"measurement": "clinical therapeutic effect in combination with Herceptin", "setting": "ADAM10 and ADAM17", "value": "improves a clinical therapeutic effect of Herceptin"}]}
{"smiles": "CCC[C@@H]([C@@H](CC(C)C)C(=O)N[C@@H](CCCCNC(=O)OCc1ccccc1)C(=O)Nc1nccs1)N(O)C=O", "note": "[GW280264, benzyl N-[(5S)-5-[[(2R,3S)-3-(Formylhydroxyamino)-2-(2-methylpropyl)-1-oxohexyl]amino]-6-oxo-6-(2-thiazolylamino)hexyl]-carbamate]", "values": [{"measurement": "anti-proliferative effect of trastuzumab on co-treatment with GW280264", "setting": "BT474 cells", "value": "resistance to trastuzumab is improved"}, {"measurement": "activation of ErbB-PI3K-AKT signaling and secretion of ErbB ligands", "setting": "ErbB-PI3K-AKT signaling", "value": "reversing the activation of ErbB-PI3K-AKT signaling"}]}
{"smiles": "CNC(=O)[C@@H](NC(=O)[C@H](CCCc1ccccc1)[C@H](C)N(O)C=O)C(C)(C)C", "note": "[GI254023, (2R)—N-[(1S)-2,2-dimethyl-1-[(methylamino)carbonyl]-propyl]-2-[(1S)-1-[formyl(hydroxy)amino]ethyl]-5-phenylpentanamide]", "values": [{"measurement": "selectivity to ADAM10 with respect to ADAM17", "setting": "ADAM10", "value": "about 100 fold"}]}
